# What was measured:
# HDAC1 = target: T1, HDAC1 (Homo sapiens, UniProt Q13547); assay: HDAC1 enzyme inhibition assay (single point and 10-dose IC50, Reaction Biology); assay type: biochemical
# T1 construct: purchased Reaction Biology corporation (contract assay)
# Experimental: (§1) All IC50 measurements we performed by Reaction Biology corporation. Compounds were tested in
# (§2) dilution starting at 1 uM. […]
# (§3) (RHK(Ac)K(Ac)AMC). IC50 values were calculated using the GraphPad Prism 4 program based on a
# (§4) sigmoidal dose-response equation. […]
# HDAC3 = target: T2, HDAC3 (Homo sapiens, UniProt O15379); assay: HDAC3 enzyme inhibition assay (single point and 10-dose IC50, Reaction Biology); assay type: biochemical
# T2 construct: purchased Reaction Biology corporation (contract assay)
# T2 sequence (O15379 whole entry): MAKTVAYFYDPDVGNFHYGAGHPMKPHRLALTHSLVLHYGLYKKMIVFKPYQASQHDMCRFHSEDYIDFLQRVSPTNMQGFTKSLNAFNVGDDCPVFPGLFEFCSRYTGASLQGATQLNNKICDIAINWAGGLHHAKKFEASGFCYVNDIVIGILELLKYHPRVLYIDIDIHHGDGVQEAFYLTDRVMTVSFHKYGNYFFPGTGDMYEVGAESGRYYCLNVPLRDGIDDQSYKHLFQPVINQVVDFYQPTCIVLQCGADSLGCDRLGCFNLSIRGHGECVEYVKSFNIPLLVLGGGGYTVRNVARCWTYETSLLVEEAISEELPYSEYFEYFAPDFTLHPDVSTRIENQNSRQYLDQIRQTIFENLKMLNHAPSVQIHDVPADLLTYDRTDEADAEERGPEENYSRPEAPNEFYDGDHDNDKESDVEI
# T2 sequence (Q9Y618 395-489 partner limits assumed): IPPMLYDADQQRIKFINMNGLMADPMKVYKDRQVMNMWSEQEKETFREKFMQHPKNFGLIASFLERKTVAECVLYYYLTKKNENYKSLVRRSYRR
# Experimental: as §1, §2, §3, §4
# HDAC6 = target: T3, HDAC6 (Homo sapiens, UniProt Q9UBN7); assay: HDAC6 enzyme inhibition assay (single point and 10-dose IC50, Reaction Biology); assay type: biochemical
# T3 construct: purchased Reaction Biology corporation (contract assay)
# T3 sequence (Q9UBN7 1-1215): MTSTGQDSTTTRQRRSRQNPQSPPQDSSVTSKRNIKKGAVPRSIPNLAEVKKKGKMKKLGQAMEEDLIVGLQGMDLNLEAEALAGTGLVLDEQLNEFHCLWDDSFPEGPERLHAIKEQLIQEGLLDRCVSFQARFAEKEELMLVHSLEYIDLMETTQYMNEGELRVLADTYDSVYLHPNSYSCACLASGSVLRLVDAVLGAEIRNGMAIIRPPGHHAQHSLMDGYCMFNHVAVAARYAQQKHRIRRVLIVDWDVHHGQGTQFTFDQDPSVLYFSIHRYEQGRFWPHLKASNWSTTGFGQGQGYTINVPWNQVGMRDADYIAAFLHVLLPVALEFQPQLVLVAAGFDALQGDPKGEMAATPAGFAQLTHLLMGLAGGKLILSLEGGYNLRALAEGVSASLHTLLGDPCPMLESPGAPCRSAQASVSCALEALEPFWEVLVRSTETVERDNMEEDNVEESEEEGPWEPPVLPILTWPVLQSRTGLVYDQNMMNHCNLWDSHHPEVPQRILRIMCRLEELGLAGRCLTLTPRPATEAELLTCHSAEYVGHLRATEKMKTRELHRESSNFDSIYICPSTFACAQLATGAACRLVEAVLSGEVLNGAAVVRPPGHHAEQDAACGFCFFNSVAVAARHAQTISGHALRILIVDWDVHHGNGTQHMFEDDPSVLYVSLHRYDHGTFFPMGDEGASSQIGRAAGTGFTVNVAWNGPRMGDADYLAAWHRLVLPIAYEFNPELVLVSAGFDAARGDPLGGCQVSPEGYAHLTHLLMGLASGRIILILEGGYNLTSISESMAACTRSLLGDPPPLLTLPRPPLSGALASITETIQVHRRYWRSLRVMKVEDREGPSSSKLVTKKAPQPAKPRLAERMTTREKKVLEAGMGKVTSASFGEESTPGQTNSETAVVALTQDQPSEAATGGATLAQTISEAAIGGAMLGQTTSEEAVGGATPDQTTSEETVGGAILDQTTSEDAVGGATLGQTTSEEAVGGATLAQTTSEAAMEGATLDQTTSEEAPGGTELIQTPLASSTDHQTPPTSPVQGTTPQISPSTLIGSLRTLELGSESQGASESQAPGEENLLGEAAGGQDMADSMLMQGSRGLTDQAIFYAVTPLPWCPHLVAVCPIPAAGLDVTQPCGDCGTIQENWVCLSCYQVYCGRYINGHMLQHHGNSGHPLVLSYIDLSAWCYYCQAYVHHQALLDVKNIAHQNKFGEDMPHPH
# Experimental: (§5) Against HDAC6, inhibition was determined using 0.01 µM of the inhibitor.
# as §1, §2, §3, §4
# HDAC8 = target: T4, HDAC8 (Homo sapiens, UniProt Q9BY41); assay: HDAC8 enzyme inhibition assay (single point and 10-dose IC50, Reaction Biology); assay type: biochemical
# T4 construct: purchased Reaction Biology corporation (contract assay)
# T4 sequence (Q9BY41 1-377): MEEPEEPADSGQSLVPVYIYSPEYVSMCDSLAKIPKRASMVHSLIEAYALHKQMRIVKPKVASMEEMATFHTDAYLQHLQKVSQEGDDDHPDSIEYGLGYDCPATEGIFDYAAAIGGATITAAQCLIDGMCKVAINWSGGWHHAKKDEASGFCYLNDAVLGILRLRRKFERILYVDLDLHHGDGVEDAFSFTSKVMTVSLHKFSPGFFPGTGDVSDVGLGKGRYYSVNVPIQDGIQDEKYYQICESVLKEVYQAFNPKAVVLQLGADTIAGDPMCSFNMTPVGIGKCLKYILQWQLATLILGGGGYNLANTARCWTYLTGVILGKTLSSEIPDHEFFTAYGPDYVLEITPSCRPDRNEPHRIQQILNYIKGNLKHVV
# Experimental: as §5, §1, §2, §3, §4
# HDAC11 = target: T5, HDAC11 (Homo sapiens, UniProt Q96DB2); assay: HDAC11 enzyme inhibition assay (single point and 10-dose IC50, Reaction Biology); assay type: biochemical
# T5 construct: purchased Reaction Biology corporation (contract assay)
# T5 sequence (Q96DB2 1-347): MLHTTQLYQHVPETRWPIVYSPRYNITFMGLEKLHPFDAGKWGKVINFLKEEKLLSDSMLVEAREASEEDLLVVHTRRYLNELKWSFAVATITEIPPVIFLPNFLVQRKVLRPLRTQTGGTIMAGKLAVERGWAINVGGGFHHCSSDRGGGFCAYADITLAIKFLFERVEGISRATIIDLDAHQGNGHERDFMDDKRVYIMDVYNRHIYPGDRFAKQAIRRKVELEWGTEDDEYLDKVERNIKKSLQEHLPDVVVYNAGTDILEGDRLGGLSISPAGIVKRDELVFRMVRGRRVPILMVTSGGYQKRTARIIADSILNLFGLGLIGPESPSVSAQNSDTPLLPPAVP
# Experimental: as §5
# All IC50 measurements we performed by Reaction Biology corporation. Compounds were tested in […]
# dilution starting at 1 uM.
# Substrate for HDAC11: 50 uM Fluorogenic HDAC Class2a Substrate […]
# (Trifluoroacetyl Lysine).
# (RHK(Ac)K(Ac)AMC). IC50 values were calculated using the GraphPad Prism 4 program based on a sigmoidal dose-response equation. […]
# [1] = UV/Vis absorption and fluorescence (photophysical properties) in DMSO; assay type: physicochemical
# Experimental: S1.6 UV/Vis and Fluorescence Data
# UV/Vis analysis was performed on a Cary Eclipse 300 UV/Vis spectrophotometer and fluorescence measurements performed on a Cary Eclipse Fluorescence spectrophotometer. All analysis was performed in 10 mm quartz cuvettes using AR grade DMSO. Relative quantum yields were obtained by comparison to quinine sulfate (фf = 0.58 in 0.1 M H2SO4) with absorbance of samples adjusted so that the absorbance at 340 nm was similar to the reference.
# Emission spectra were obtained by excitation at 340 nm. Quantum yield was obtained by use of the following equation and are reported as the average of two samples with error <5%; […]
# Where фref is the literature quantum yield of the reference, η is the refractive index of the solvent (H2O = 1.333, DMSO = 1.479) and Is is the integrated fluorescence intensity of the sample with Iref being the same of the reference.
# Table S1 – Photophysical properties of selected compounds in DMSO […]
# †Average of two samples, ±1%
# [2] = average of two independent measurements
# [3] = single point, inhibitor 1.0 μM, average of two measurements, ±2%
# T1 sequence (Q13547 whole entry): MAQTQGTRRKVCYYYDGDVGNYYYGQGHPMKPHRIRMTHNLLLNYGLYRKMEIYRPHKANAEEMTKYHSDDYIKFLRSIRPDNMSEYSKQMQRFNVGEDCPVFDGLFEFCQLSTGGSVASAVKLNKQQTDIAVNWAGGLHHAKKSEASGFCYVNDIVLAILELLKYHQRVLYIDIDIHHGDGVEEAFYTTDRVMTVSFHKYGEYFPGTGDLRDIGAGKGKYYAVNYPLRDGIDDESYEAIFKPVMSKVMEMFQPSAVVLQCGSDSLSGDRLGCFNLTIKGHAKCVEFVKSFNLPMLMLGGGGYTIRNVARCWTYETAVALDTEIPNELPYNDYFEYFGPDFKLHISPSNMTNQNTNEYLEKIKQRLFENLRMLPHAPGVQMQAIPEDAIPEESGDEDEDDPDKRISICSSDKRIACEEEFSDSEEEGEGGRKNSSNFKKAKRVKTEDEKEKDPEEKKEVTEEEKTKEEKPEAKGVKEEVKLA
compound,measurement,setting,value
O=C(CCCCCN1C(=O)c2cccc3cc(NC(=O)c4ccccc4)cc(c23)C1=O)NO [KNH019],IC50,HDAC1; [2],91 ± 6 nM
same,Selectivity factor (SF) = HDAC1 IC50/HDAC6 IC50,HDAC1; selectivity for HDAC6 over HDAC1,91
same,HDAC1 average enzyme isoform activity (percentage of full enzyme activity),HDAC1; [3],36.3%
same,IC50,HDAC3; [2],64 ± 0.2 nM
same,Selectivity factor (SF) HDAC3 against HDAC6,HDAC3; selectivity for HDAC6 over HDAC3,64
same,HDAC3 average enzyme isoform activity (percentage of full enzyme activity),HDAC3; [3],24.1%
same,IC50,HDAC6; [2],1 ± 0.005 nM
same,HDAC6 average enzyme isoform activity (percentage of full enzyme activity),"HDAC6; single point, inhibitor 0.01 μM, average of two measurements, ±2%",20.4%
same,IC50,HDAC8; [2],2950 ± 460 nM
same,Selectivity factor (SF) HDAC8 against HDAC6,HDAC8; selectivity for HDAC6 over HDAC8,2950
same,HDAC8 average enzyme isoform activity (percentage of full enzyme activity),HDAC8; [3],69.3%
same,IC50,HDAC11; [2],290 ± 35 nM
same,Selectivity factor (SF) HDAC11 against HDAC6,HDAC11; selectivity for HDAC6 over HDAC11,290
same,HDAC11 average enzyme isoform activity (percentage of full enzyme activity),HDAC11; [3],67.5%
same,λabs (absorption maximum),[1],343 nm
same,λabs (secondary absorption maximum),[1],374 nm
same,λem,[1]; excitation at 340 nm,437 nm
same,Φf (fluorescence quantum yield),"[1]; relative to quinine sulfate, average of two samples",0.05

# From article PMC8232238 (Cells, 2021)
